Consider 23 compounds from patent publication US12187684B2, “Benzimidazole derivatives as modulators of retinoid-related orphan receptor gamma (RORγ) and pharmaceutical use thereof” (Jiangsu Hengrui Medicine Co., Ltd., priority 2018, dated 2025).

The assay addresses T1, RORγ LBD-GST tagged (Homo sapiens, UniProt P51449).
T1 construct: RORγ LBD-GST tagged (Cat No. RORC-114H, Creative Biomart); purchased Creative Biomart RORC-114H
T1 sequence (P51449 269-508 limits assumed): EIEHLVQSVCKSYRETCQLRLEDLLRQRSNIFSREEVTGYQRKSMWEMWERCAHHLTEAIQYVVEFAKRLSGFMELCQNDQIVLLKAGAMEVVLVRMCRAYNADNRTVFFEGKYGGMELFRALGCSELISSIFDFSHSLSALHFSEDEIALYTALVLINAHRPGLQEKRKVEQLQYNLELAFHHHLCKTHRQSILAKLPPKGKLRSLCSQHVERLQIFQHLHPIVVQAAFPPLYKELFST
Briefly: LanthaScreen TR-FRET RORγ coactivator assay. In kind it is biochemical. Particulars: Fluorescein-D22 coactivator peptide, 1 hour room temperature. The text has this: LanthaScreen TR-FRET Retinoid-Related Orphan Receptor Gamma (RORγ) Coactivator Assay Materials and Reagents • 1. […] Fluorescein-D22 coactivator peptide (Cat No. PV4386, Invitrogen) • 3. LanthaScreen™ Tb anti-GST antibody (Cat No. PV3550, Invitrogen) • 4. TR-FRET coregulatory buffer D (Cat No, PV4420, Invitrogen) • 5. DTT (Cat No. P2325, Fisher) • 6. […] Tecan Infinite M1000 plate reader (Tecan) Experimental Procedure Prepare Complete TR-FRET Coregulator Buffer D by adding 1 M DTT to TR-FRET Coregulator Buffer D to the final concentration of 5 mM DTT. Make compound dilution in Complete TR-FRET Coregulator Buffer D. Highest dose is 3 μM, 7-folder dilution for total 7 doses. Add 10 μL to each well of a 384-well plate. For the negative and positive controls, add 10 μL of Complete TR-FRET Coregulator Buffer D. Prepare RORγ LBD using Complete TR-FRET Coregulator Buffer D. The final concentration of RORγ LBD is 25 ng/reaction. Add 5 μL RORγ LBD to all the wells of the 384-well assay plate except negative wells which adding 5 μL Complete TR-FRET Coregulator Buffer D. Prepare a solution containing 0.6 μM Fluorescein-D22 and 8 nM Tb anti-GST antibody using Complete TR-FRET Coregulator Buffer D. Add 5 μL to all wells of the 384-well assay plate. Briefly and gently mix the 384-well plate on a plate shaker and incubate at room temperature protected from light for 1 hour. The plate may be sealed with a cover to minimize evaporation. Read the plate at wavelengths of 520 nm and 495 nm on Tecan Infinite M1000. IC50 values were calculated using GraphPad Prism by plotting the logarithm of compounds concentration versus percent inhibition.
As to `CS(=O)(=O)c1ccc(C(O)c2nc3c(Cl)c(-c4ccccc4OC(F)(F)F)c(Cl)cc3[nH]2)cc1` (centres unmarked) [Example 58, (4,6-dichloro-5-(2-(trifluoromethoxy)phenyl)-1H-benzo[d]imidazol-2-yl)(4-(methylsulfonyl)phenyl)methanol], inhibition was half-maximal at 0.266 µM (IC50).

As to `CCS(=O)(=O)c1ccc(C(O)c2nc3c(Cl)c(-c4cc(Cl)ccc4Cl)c(Cl)cc3[nH]2)cc1` (centres unmarked) [Example 15, (4,6-dichloro-5-(2,5-dichlorophenyl)-1H-benzo[d]imidazol-2-yl)(4-(ethylsulfonyl)phenyl)methanol], the midpoint of inhibition, the IC50, lay at 0.787 µM. This IC50 is about 3-fold higher than that of the compound before.

As to `O=S(=O)(c1ccc(Cc2nc3c(Cl)c(-c4ccccc4C(F)(F)F)c(Cl)cc3[nH]2)cc1)C(F)(F)F` [Example 65, 4,6-dichloro-5-(2-(trifluoromethyl)phenyl)-2-(4-((trifluoromethyl)sulfonyl)benzyl)-1H-benzo[d]imidazole], 0.015 µM corresponded to half-maximal inhibition (IC50). Compared with the last compound, the IC50 is about 52-fold lower.

Take `CCS(=O)(=O)c1ccc(C(O)c2nc3c(C)c(-c4ccccc4OC)c(C)cc3[nH]2)cc1` (centres unmarked) [Example 118, (4-(ethylsulfonyl)phenyl)(5-(2-methoxyphenyl)-4,6-dimethyl-1H-benzo[d]imidazol-2-yl)methanol]: inhibition was half-maximal at 0.306 µM (IC50).

In turn, `O=S(=O)(CC(F)(F)F)c1ccc(C(CO)c2nc3c(Cl)c(-c4ccccc4OC(F)(F)F)c(Cl)cc3[nH]2)cc1` (centres unmarked) [Example 60, 2-(4,6-dichloro-5-(2-(trifluoromethoxy)phenyl)-1H-benzo[d]imidazol-2-yl)-2-(4-((2,2,2-trifluoroethyl)sulfonyl)phenyl)ethanol] registered a concentration for half-maximal inhibition (IC50) of 0.409 µM.

With `O=S(=O)(CC1CC1)c1ccc(C(O)c2nc3c(Cl)c(-c4ccccc4F)c(Cl)cc3[nH]2)cc1` (centres unmarked) [Example 75, (4-((cyclopropylmethyl)sulfonyl)phenyl)(4,6-dichloro-5-(2-fluorophenyl)-1H-benzo[d]imidazol-2-yl)methanol], inhibition was half-maximal at 0.006 µM (IC50).

In turn, `CCS(=O)(=O)c1ccc(C(O)c2nc3c(Cl)c(-c4ccccc4OC(F)F)c(Cl)cc3[nH]2)c(F)c1` (centres unmarked) [Example 85, (4,6-dichloro-5-(2-(difluoromethoxy)phenyl)-1H-benzo[d]imidazol-2-yl)(4-(ethylsulfonyl)-2-fluorophenyl)methanol] yielded an IC50 of 0.188 µM.

`CCS(=O)(=O)c1ccc(C(O)c2nc3c(Cl)c(-c4ccccc4OC(F)(F)F)c(Cl)cc3[nH]2)c(Cl)c1` (centres unmarked) [Example 88, (2-chloro-4-(ethylsulfonyl)phenyl)(4,6-dichloro-5-(2-(trifluoromethoxy)phenyl)-1H-benzo[d]imidazol-2-yl)methanol] displayed an IC50 of 0.162 µM.

Compound `CCOc1ccccc1-c1c(Cl)cc2[nH]c(Cc3ccc(S(=O)(=O)CC)cc3)nc2c1Cl` [Example 16, 4,6-dichloro-5-(2-ethoxyphenyl)-2-(4-(ethylsulfonyl)benzyl)-1H-benzo[d]imidazole] showed an IC50 of 0.626 µM.

The compound `CCS(=O)(=O)c1ccc(C(CO)c2nc3c(F)c(-c4ccccc4F)c(F)cc3[nH]2)cc1` (centres unmarked) [Example 112, 2-(4,6-difluoro-5-(2-fluorophenyl)-1H-benzo[d]imidazol-2-yl)-2-(4-(ethylsulfonyl)phenyl)ethanol] yielded a concentration for half-maximal inhibition (IC50) of 0.076 µM.

`CCCS(=O)(=O)c1ccc(C(CO)c2nc3c(Cl)c(-c4ccccc4OC(F)(F)F)c(Cl)cc3[nH]2)cc1` (centres unmarked) [Example 51, 2-(4,6-dichloro-5-(2-(trifluoromethoxy)phenyl)-1H-benzo[d]imidazol-2-yl)-2-(4-(propylsulfonyl)phenyl)ethanol] gave a half-inhibitory concentration (IC50) of 0.646 µM.

As to `CC(C)Oc1ccccc1-c1cc2nc(C(CCO)c3ccc(S(=O)(=O)CC4CC4)cc3)[nH]c2cc1Cl` (single isomer, unassigned) [3-(6-chloro-5-(2-isopropoxyphenyl)-1H-benzo[d]imidazol-2-yl)-3-(4-((cyclopropylmethyl)sulfonyl)phenyl)propan-1-ol], the 50% inhibitory concentration (IC50) was 0.787 µM.

In the case of `CCCS(=O)(=O)c1ccc(C(O)c2nc3c(Cl)c(-c4ccccc4OC(F)(F)F)c(Cl)cc3[nH]2)cc1` (centres unmarked) [Example 52, (4,6-dichloro-5-(2-(trifluoromethoxy)phenyl)-1H-benzo[d]imidazol-2-yl)(4-(propylsulfonyl)phenyl)methanol], 0.135 µM corresponded to half-maximal inhibition (IC50).

As to `O=S(=O)(CC1CC1)c1ccc(C(O)c2nc3c(Cl)c(-c4ccccc4OC(F)(F)F)c(Cl)cc3[nH]2)c(Cl)c1` (centres unmarked) [Example 92, (2-chloro-4-((cyclopropylmethyl)sulfonyl)phenyl)(4,6-dichloro-5-(2-(trifluoromethoxy)phenyl)-1H-benzo[d]imidazol-2-yl)methanol], the IC50 was 0.067 µM.

With `CCS(=O)(=O)c1ccc(C(O)c2nc3c(Cl)c(-c4ccccc4)c(Cl)cc3[nH]2)cc1` (centres unmarked) [Example 2, (4,6-dichloro-5-phenyl-1H-benzo[d]imidazol-2-yl)(4-(ethylsulfonyl)phenyl)methanol], the IC50 was 0.467 µM. This IC50 lies about 7-fold higher than the previous one.

In turn, `O=S(=O)(CC1CC1)c1ccc(Cc2nc3c(Cl)c(-c4ccccc4OC(F)(F)F)c(Cl)cc3[nH]2)c(Cl)c1` [Example 90, 4,6-dichloro-2-(2-chloro-4-((cyclopropylmethyl)sulfonyl)benzyl)-5-(2-(trifluoromethoxy)phenyl)-1H-benzo[d]imidazole] had an IC50 of 0.004 µM.

With `CCS(=O)(=O)c1ccc(C(O)c2nc3c(Cl)c(-c4ccccc4C(F)(F)F)c(Cl)cc3[nH]2)c(F)c1` (centres unmarked) [Example 79, (4,6-dichloro-5-(2-(trifluoromethyl)phenyl)-1H-benzo[d]imidazol-2-yl)(4-(ethylsulfonyl)-2-fluorophenyl)methanol], the IC50 is 0.048 µM.

The compound `CS(=O)(=O)c1ccc(C(CO)c2nc3c(Cl)c(-c4ccccc4OC(F)F)c(Cl)cc3[nH]2)cc1` (centres unmarked) [Example 48, 2-(4,6-dichloro-5-(2-(difluoromethoxy)phenyl)-1H-benzo[d]imidazol-2-yl)-2-(4-(methylsulfonyl)phenyl)ethanol] yielded a half-inhibitory concentration (IC50) of 0.445 µM.

The compound `CCS(=O)(=O)c1ccc(C(O)c2nc3c(Cl)c(-c4ccsc4)c(Cl)cc3[nH]2)cc1` (centres unmarked) [Example 26, (4,6-dichloro-5-(thiophen-3-yl)-1H-benzo[d]imidazol-2-yl)(4-(ethylsulfonyl)phenyl)methanol] displayed a half-maximal inhibitory concentration (IC50) of 0.465 µM. This IC50 and that of the compound before are within 1.5-fold of each other.

In turn, `N#Cc1ccccc1-c1c(Cl)cc2[nH]c(C(CO)c3ccc(S(=O)(=O)CC4CC4)cc3)nc2c1Cl` (centres unmarked) [Example 96, 2-(4,6-dichloro-2-(1-(4-((cyclopropylmethyl)sulfonyl)phenyl)-2-hydroxyethyl)-1H-benzo[d]imidazol-5-yl)benzonitrile] gave a 50% inhibitory concentration (IC50) of 0.123 µM.

Take `O=S(=O)(CC1CC1)c1ccc(Cc2nc3c(Cl)c(-c4ccccc4OC(F)F)c(Cl)cc3[nH]2)c(F)c1` [Example 98, 4,6-dichloro-2-(4-((cyclopropylmethyl)sulfonyl)-2-fluorobenzyl)-5-(2-(difluoromethoxy)phenyl)-1H-benzo[d]imidazole]: the half-maximal inhibitory concentration (IC50) worked out at 0.007 µM.

`CCS(=O)(=O)c1ccc(C(CCO)c2nc3c(Cl)c(N4CCC(F)(F)CC4)c(Cl)cc3[nH]2)cc1` (single isomer, unassigned) [3-(4,6-dichloro-5-(4,4-difluoropiperidin-1-yl)-1H-benzo[d]imidazol-2-yl)-3-(4-(ethylsulfonyl)phenyl)propan-1-ol] showed an IC50 of 0.093 µM. Against the preceding compound, the IC50 is about 13-fold higher.

`O=S(=O)(CC1CC1)c1ccc(C(CO)c2nc3c(Cl)c(-c4ccccc4F)c(Cl)cc3[nH]2)cc1` (centres unmarked) [Example 74, 2-(4-((cyclopropylmethyl)sulfonyl)phenyl)-2-(4,6-dichloro-5-(2-fluorophenyl)-1H-benzo[d]imidazol-2-yl)ethanol]: the IC50 is 0.187 µM. This IC50 is about 2-fold higher than that of the compound before.
